How the values were obtained:
Assay in all cases: relative viability (nuclei count vs DMSO), 5 days (fraction); higher = more cells survive
ABC-1 = tested on: ABC-1
Method in brief: (§1)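 Five library-drug doses in √10 steps were combined with a fixed anchor-drug dose, or a single drug was given alone, by pin tool to lung cancer cell lines in 1536-well plates the day after seeding. Nuclei were stained and counted after 5 days. Relative viability is the nuclei count in treated wells over that in vehicle wells, taken as the median of duplicate plates.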

CAL-12T = tested on: CAL-12T
Method in brief: as §1

COR-L 105 = tested on: COR-L 105
Method in brief: as §1

ChaGo-K-1 = tested on: ChaGo-K-1
Method in brief: as §1

EMC-BAC-2 = tested on: EMC-BAC-2
Method in brief: as §1

EPLC-272H = tested on: EPLC-272H
Method in brief: as §1

HCC-15 = tested on: HCC-15
Method in brief: as §1

HCC-78 = tested on: HCC-78
Method in brief: as §1

HOP-62 = tested on: HOP-62
Method in brief: as §1

LXF-289 = tested on: LXF-289
Method in brief: as §1

NCI-H1666 = tested on: NCI-H1666
Method in brief: as §1

NCI-H1755 = tested on: NCI-H1755
Method in brief: as §1

NCI-H1915 = tested on: NCI-H1915
Method in brief: as §1

NCI-H1975 = tested on: NCI-H1975
Method in brief: as §1

NCI-H1993 = tested on: NCI-H1993
Method in brief: as §1

NCI-H2023 = tested on: NCI-H2023
Method in brief: as §1

NCI-H2085 = tested on: NCI-H2085
Method in brief: as §1

NCI-H2126 = tested on: NCI-H2126
Method in brief: as §1

NCI-H3122 = tested on: NCI-H3122
Method in brief: as §1

NCI-H322M = tested on: NCI-H322M
Method in brief: as §1

NCI-H358 = tested on: NCI-H358
Method in brief: as §1

NCI-H441 = tested on: NCI-H441
Method in brief: as §1

UMC-11 = tested on: UMC-11
Method in brief: as §1

For NC(=O)Nc1cc(-c2cccc(F)c2)sc1C(=O)N[C@H]1CCCNC1 [AZD7762] + Cc1cc(Nc2cc(N3CCN(C)CC3)nc(Sc3ccc(NC(=O)C4CC4)cc3)n2)n[nH]1 [Tozasertib] (partner 0.1 µM), the relative viability (ABC-1; first compound 0.01 µM) was 0.18, the relative viability (ABC-1; first compound 0.03162 µM) was 0.178 and the relative viability (ABC-1; first compound 0.1 µM) was 0.16. It also gave a relative viability (ABC-1; first compound 0.3162 µM) of 0.115, a relative viability (ABC-1; first compound 1 µM) of 0.111 and a relative viability (CAL-12T; first compound 0.01 µM) of 0.402. For the same compound, the relative viability (CAL-12T; first compound 0.03162 µM) was 0.332, the relative viability (CAL-12T; first compound 0.1 µM) was 0.353 and the relative viability (CAL-12T; first compound 0.3162 µM) was 0.168. For the same compound, the relative viability (CAL-12T; first compound 1 µM) was 0.0999, the relative viability (COR-L 105; first compound 0.01 µM) was 0.348 and the relative viability (COR-L 105; first compound 0.03162 µM) was 0.311. The relative viability (COR-L 105; first compound 0.1 µM) was 0.328, the relative viability (COR-L 105; first compound 0.3162 µM) was 0.3 and the relative viability (COR-L 105; first compound 1 µM) was 0.258. For the same compound, the relative viability (ChaGo-K-1; first compound 0.01 µM) was 0.215, the relative viability (ChaGo-K-1; first compound 0.03162 µM) was 0.224 and the relative viability (ChaGo-K-1; first compound 0.1 µM) was 0.239. The relative viability (ChaGo-K-1; first compound 0.3162 µM) was 0.197, the relative viability (ChaGo-K-1; first compound 1 µM) was 0.227 and the relative viability (EMC-BAC-2; first compound 0.01 µM) was 0.295. For the same compound, the relative viability (EMC-BAC-2; first compound 0.03162 µM) was 0.302, the relative viability (EMC-BAC-2; first compound 0.1 µM) was 0.326 and the relative viability (EMC-BAC-2; first compound 0.3162 µM) was 0.321. It also gave a relative viability (EMC-BAC-2; first compound 1 µM) of 0.282, a relative viability (EPLC-272H; first compound 0.01 µM) of 0.274 and a relative viability (EPLC-272H; first compound 0.03162 µM) of 0.242. It also gave a relative viability (EPLC-272H; first compound 0.1 µM) of 0.248, a relative viability (EPLC-272H; first compound 0.3162 µM) of 0.28 and a relative viability (EPLC-272H; first compound 1 µM) of 0.0908. The relative viability (HCC-15; first compound 0.01 µM) was 0.448, the relative viability (HCC-15; first compound 0.03162 µM) was 0.381 and the relative viability (HCC-15; first compound 0.1 µM) was 0.511. The relative viability (HCC-15; first compound 0.3162 µM) was 0.432, the relative viability (HCC-15; first compound 1 µM) was 0.212 and the relative viability (HCC-78; first compound 0.01 µM) was 0.539. The relative viability (HCC-78; first compound 0.03162 µM) was 0.437, the relative viability (HCC-78; first compound 0.1 µM) was 0.515 and the relative viability (HCC-78; first compound 0.3162 µM) was 0.44. The relative viability (HCC-78; first compound 1 µM) was 0.404, the relative viability (HOP-62; first compound 0.01 µM) was 0.439 and the relative viability (HOP-62; first compound 0.03162 µM) was 0.376. For the same compound, the relative viability (HOP-62; first compound 0.1 µM) was 0.378, the relative viability (HOP-62; first compound 0.3162 µM) was 0.339 and the relative viability (HOP-62; first compound 1 µM) was 0.219. It also gave a relative viability (LXF-289; first compound 0.01 µM) of 0.215, a relative viability (LXF-289; first compound 0.03162 µM) of 0.203 and a relative viability (LXF-289; first compound 0.1 µM) of 0.196. The relative viability (LXF-289; first compound 0.3162 µM) was 0.174, the relative viability (LXF-289; first compound 1 µM) was 0.188 and the relative viability (NCI-H1666; first compound 0.01 µM) was 0.703. For the same compound, the relative viability (NCI-H1666; first compound 0.03162 µM) was 0.748, the relative viability (NCI-H1666; first compound 0.1 µM) was 0.68 and the relative viability (NCI-H1666; first compound 0.3162 µM) was 0.724. For the same compound, the relative viability (NCI-H1666; first compound 1 µM) was 0.47, the relative viability (NCI-H1755; first compound 0.01 µM) was 0.767 and the relative viability (NCI-H1755; first compound 0.03162 µM) was 0.572. It also gave a relative viability (NCI-H1755; first compound 0.1 µM) of 0.687, a relative viability (NCI-H1755; first compound 0.3162 µM) of 0.539 and a relative viability (NCI-H1755; first compound 1 µM) of 0.421. It also gave a relative viability (NCI-H1915; first compound 0.01 µM) of 0.471, a relative viability (NCI-H1915; first compound 0.03162 µM) of 0.497 and a relative viability (NCI-H1915; first compound 0.1 µM) of 0.483. For the same compound, the relative viability (NCI-H1915; first compound 0.3162 µM) was 0.415, the relative viability (NCI-H1915; first compound 1 µM) was 0.368 and the relative viability (NCI-H1975; first compound 0.01 µM) was 0.762. The relative viability (NCI-H1975; first compound 0.03162 µM) was 0.721, the relative viability (NCI-H1975; first compound 0.1 µM) was 0.589 and the relative viability (NCI-H1975; first compound 0.3162 µM) was 0.469. It also gave a relative viability (NCI-H1975; first compound 1 µM) of 0.367, a relative viability (NCI-H1993; first compound 0.01 µM) of 0.654 and a relative viability (NCI-H1993; first compound 0.03162 µM) of 0.579. It also gave a relative viability (NCI-H1993; first compound 0.1 µM) of 0.628, a relative viability (NCI-H1993; first compound 0.3162 µM) of 0.641 and a relative viability (NCI-H1993; first compound 1 µM) of 0.547. The relative viability (NCI-H2023; first compound 0.01 µM) was 0.374, the relative viability (NCI-H2023; first compound 0.03162 µM) was 0.307 and the relative viability (NCI-H2023; first compound 0.1 µM) was 0.227. It also gave a relative viability (NCI-H2023; first compound 0.3162 µM) of 0.105, a relative viability (NCI-H2023; first compound 1 µM) of 0.0751 and a relative viability (NCI-H2085; first compound 0.01 µM) of 0.875. For the same compound, the relative viability (NCI-H2085; first compound 0.03162 µM) was 0.769, the relative viability (NCI-H2085; first compound 0.1 µM) was 0.807 and the relative viability (NCI-H2085; first compound 0.3162 µM) was 0.729. For the same compound, the relative viability (NCI-H2085; first compound 1 µM) was 0.713, the relative viability (NCI-H2126; first compound 0.01 µM) was 0.889 and the relative viability (NCI-H2126; first compound 0.03162 µM) was 0.888. The relative viability (NCI-H2126; first compound 0.1 µM) was 0.937, the relative viability (NCI-H2126; first compound 0.3162 µM) was 0.831 and the relative viability (NCI-H2126; first compound 1 µM) was 0.454. For the same compound, the relative viability (NCI-H3122; first compound 0.01 µM) was 0.475, the relative viability (NCI-H3122; first compound 0.03162 µM) was 0.412 and the relative viability (NCI-H3122; first compound 0.1 µM) was 0.402. It also gave a relative viability (NCI-H3122; first compound 0.3162 µM) of 0.278, a relative viability (NCI-H3122; first compound 1 µM) of 0.156 and a relative viability (NCI-H322M; first compound 0.01 µM) of 0.47. The relative viability (NCI-H322M; first compound 0.03162 µM) was 0.515, the relative viability (NCI-H322M; first compound 0.1 µM) was 0.514 and the relative viability (NCI-H322M; first compound 0.3162 µM) was 0.307. For the same compound, the relative viability (NCI-H322M; first compound 1 µM) was 0.305, the relative viability (NCI-H358; first compound 0.01 µM) was 0.0979 and the relative viability (NCI-H358; first compound 0.03162 µM) was 0.088. The relative viability (NCI-H358; first compound 0.1 µM) was 0.109, the relative viability (NCI-H358; first compound 0.3162 µM) was 0.0755 and the relative viability (NCI-H358; first compound 1 µM) was 0.0734. For the same compound, the relative viability (NCI-H441; first compound 0.01 µM) was 0.801, the relative viability (NCI-H441; first compound 0.03162 µM) was 0.907 and the relative viability (NCI-H441; first compound 0.1 µM) was 0.908. It also gave a relative viability (NCI-H441; first compound 0.3162 µM) of 0.925, a relative viability (NCI-H441; first compound 1 µM) of 0.587 and a relative viability (UMC-11; first compound 0.01 µM) of 0.191. It also gave a relative viability (UMC-11; first compound 0.03162 µM) of 0.216, a relative viability (UMC-11; first compound 0.1 µM) of 0.202 and a relative viability (UMC-11; first compound 0.3162 µM) of 0.194. For the same compound, the relative viability (UMC-11; first compound 1 µM) was 0.191.

Source: the supplement of paper PMC10307832
